Assay in all cases: NCI tumour cell line growth inhibition, 48 h
The subject of assay [1] is MDA-N.
Assay [2] deals with IGROV1 ovarian.
For assay [3], the system named is OVCAR-4 ovarian.
For assay [4], the system named is SK-MEL-28 melanoma.
The test system of assay [5] is OVCAR-3 ovarian.
Assay [6] has as its system OVCAR-8 ovarian.
Assay [7] deals with CAKI-1 renal.
In assay [8] the test system is K-562 leukemia.
Assay [9] has as its system HL-60(TB) leukemia.

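All cell lines were grown in 96-well plates and treated with compound for 48 hours. At the GI50, growth is halved. The concentration for full growth arrest is given as TGI.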

Regarding `CCC(C)[C@H](NC(=O)[C@H](Cc1ccccc1)NC(=O)N(CC)c1ccccc1)C(=O)N[C@@H](CC(C)C)C(=O)OC` (stereo not given in full), the TGI in [1] was more than 100 µM; in [2], 61.5 µM; in assay [3], more than 100 µM; in [4], more than 100 µM; in assay [5], more than 100 µM; in assay [6], more than 100 µM. Besides, in assay [7], the TGI is more than 100 µM.
With `O=c1cnn(C/C=C\CO)c(=O)[nH]1`, the TGI in [1], in [2], in assay [4], in assay [5], in [6] and in assay [8] was more than 100 µM each time. The TGI in [9] and in assay [7] was more than 100 µM each time.
Regarding `O=c1c2ccccc2oc2nc3n(c(=O)c12)CCCS3`, the TGI in assay [1], in assay [2], in assay [3], in assay [4], in assay [5] and in [6] was more than 100 µM in each case. The TGI in [8] and in [7] was more than 100 µM throughout.
Turning to `CCOC(=O)c1cn(-c2ccccc2)c(=S)n2c1nc1ccccc12`, the TGI in [1] is more than 100 µM; in assay [2], more than 100 µM; in assay [3], more than 100 µM; in assay [4], more than 73.4 µM; in assay [5], more than 100 µM; in assay [6] it was more than 100 µM. In addition, the TGI in assay [8] and in assay [7] was more than 100 µM each time.
For `O=C(CSCC(=O)N/N=C/c1cc(I)cc(I)c1O)N/N=C/c1cc(I)cc(I)c1O`, the TGI in assay [2] was 25.3 µM; in [3], more than 100 µM; in assay [4], more than 100 µM; in assay [5], more than 100 µM; in [6], 59.8 µM; in assay [8], 37.7 µM. Also, the results for the TGI in assay [9] and in assay [7] were 43.5 µM and more than 100 µM, respectively.
For `COc1cc2c(cc1OCCCN1CCN(CCCOc3cc4c(cc3OC)C(=O)N3CCC[C@H]3C=N4)CC1)C=CC(C)(C)O2`, the GI50 in [2] is 606 nM; in assay [3], 1560 nM; in [4] it was 1510 nM; in assay [5], 1360 nM; in assay [6], 1380 nM; in [8], 320 nM. The GI50 is 252 nM in assay [9] and 827 nM in [7]. Further, the TGI is more than 100 µM in assay [2]; 3.53 µM in [3]; 2.83 µM in [4]; 2.67 µM in assay [5]; 3.85 µM in [6]; 1.03 µM in assay [8]. For the same compound, the TGI in [9] turned out to be 0.738 µM; in assay [7], 2.12 µM.
As to `CCCCNC1CCC2(SCCS2)c2[nH]c3ccccc3c21` (stereo not given), the TGI in [2] was more than 100 µM; in assay [3] it was more than 100 µM; in assay [4], more than 100 µM; in assay [5] it was 46.7 µM; in [6] it was 66.3 µM; in [8], 55.1 µM. For the same compound, the TGI in assay [9] came out at 8.05 µM.
On to `C1=C\SS/C=C\SS/C=C\SS/C=C\SS/1`, for which the TGI was more than 100 µM in assay [1]; more than 100 µM in [2]; more than 100 µM in assay [3]; more than 100 µM in [4]; more than 100 µM in assay [6]; 64 µM in assay [8]. In addition, the TGI in [9] was 58.1 µM; in assay [7] it was more than 100 µM.
For the compound `CN(C)c1nc2sc3c(c2c(=O)o1)CCCC3`, the TGI in [1], in assay [2], in [3], in assay [4], in [6] and in [8] was more than 100 µM each time. Further, the TGI in assay [9] and in assay [7] was more than 100 µM in each case.
As for `O=S(=O)(Oc1ccc2oc3ccccc3c2c1-c1c(OS(=O)(=O)C(F)(F)F)ccc2oc3ccccc3c12)C(F)(F)F`, the TGI in assay [2], in [3], in assay [4], in assay [5], in [6] and in assay [8] was more than 100 µM throughout. Also, the TGI in assay [9] and in [7] was more than 100 µM each time.
As to `O=C1C=CC2CCC1C2` (stereo not given), the TGI in assay [1] was more than 100 µM; in assay [2], more than 100 µM; in assay [4], 89.9 µM; in [5], more than 100 µM; in [6] it was more than 100 µM; in assay [8] it was more than 100 µM. Moreover, the TGI in assay [9] and in assay [7] was more than 100 µM throughout.
Turning to `Clc1ccc2c(SCC3CO3)c3ccccc3nc2c1` (stereo not given), the TGI in [2] is 2.9 µM; in assay [3], 21.1 µM; in assay [4], 21.1 µM; in assay [5], 3.27 µM; in assay [6], more than 100 µM; in assay [8] it was 4.43 µM. Moreover, the TGI was 2.59 µM in assay [9] and 2.88 µM in assay [7].
As to `c1csc(-c2ccc(-c3ccc(-c4ccc(-c5cccs5)s4)s3)s2)c1`, the TGI in assay [2] is more than 100 µM; in assay [5] it was more than 100 µM; in assay [6], more than 100 µM; in [8], more than 100 µM; in assay [9] it was 53.6 µM; in assay [7], more than 100 µM.
Regarding `Nc1nc(N)c2ncn(CC3CCC(CO)C3)c2n1` (stereo not given), the TGI in [1], in assay [3], in assay [4], in assay [5], in [8] and in assay [7] was more than 100 µM in each case.
With `O=C1N[C@H]2c3c(Cl)sc(Cl)c3/C(=N/O)[C@H]2O1`, the TGI in [1], in [2], in assay [4], in assay [5], in assay [6] and in assay [8] was more than 100 µM throughout. Also, the TGI was 57.9 µM in assay [9] and more than 100 µM in [7].
As for `Cc1ccc(C2CC(=O)CC(c3ccc(C)cc3)C23C(=O)NC(=O)NC3=O)cc1` (stereo not given), the TGI in assay [1], in assay [2], in assay [3], in [4], in assay [5] and in [6] was more than 100 µM throughout. For the same compound, the TGI in [8] and in [7] was more than 100 µM throughout.
